Measurements published in patent US9849131B2 (AUTIFONY THERAPEUTICS LIMITED, priority 2009, dated 2017).

Target: T1, hKv3.2 (Homo sapiens, UniProt Q96PR1)
T1 construct: expressed in transfected cells; host or cells: CHO-K1
T1 sequence (Q96PR1 1-638): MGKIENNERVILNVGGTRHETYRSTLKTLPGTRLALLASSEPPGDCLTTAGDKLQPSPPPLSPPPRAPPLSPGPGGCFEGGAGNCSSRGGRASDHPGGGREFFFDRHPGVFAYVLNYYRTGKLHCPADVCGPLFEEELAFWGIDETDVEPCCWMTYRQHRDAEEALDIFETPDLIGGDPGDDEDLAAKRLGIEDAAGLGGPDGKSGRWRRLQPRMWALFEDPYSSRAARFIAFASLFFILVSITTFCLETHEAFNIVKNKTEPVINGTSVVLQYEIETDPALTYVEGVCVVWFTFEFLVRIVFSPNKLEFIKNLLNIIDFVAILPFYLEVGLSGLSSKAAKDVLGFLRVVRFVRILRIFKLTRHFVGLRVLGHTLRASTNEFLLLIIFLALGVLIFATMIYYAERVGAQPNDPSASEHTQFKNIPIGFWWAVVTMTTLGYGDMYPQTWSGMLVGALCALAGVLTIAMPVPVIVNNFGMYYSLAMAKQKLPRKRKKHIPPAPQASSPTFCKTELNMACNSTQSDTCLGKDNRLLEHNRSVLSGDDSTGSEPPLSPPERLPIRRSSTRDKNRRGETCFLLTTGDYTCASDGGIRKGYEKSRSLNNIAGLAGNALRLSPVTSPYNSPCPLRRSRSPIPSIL
Assay: IonWorks Quattro assay, secondary analysis of activation time constant (Tauact)
Format: cell-based
Details: classification from effect on Tauact
Protocol: A stable cell line expressing human Kv3.2 channels (hKv3.2) was created by transfecting Chinese Hamster Ovary (CHO)-K1 cells with a pCIH5-hKv3.2 vector. Cells were cultured in DMEM/F12 medium supplemented by 10% Foetal Bovine Serum, 1× non-essential amino acids (Invitrogen) and 500 ug/ml of Hygromycin-B (Invitrogen). Cells were grown and maintained at 37° C. in a humidified environment containing 5% CO2 in air.
The day of the experiment, cells were removed from the incubator and the culture medium removed. Cells were washed with 5 ml of Dulbecco's PBS (DPBS) calcium and magnesium free and detached by the addition of 3 ml Versene (Invitrogen, Italy) followed by a brief incubation at 37° C. for 5 minutes. The flask was tapped to dislodge cells and 10 ml of DPBS containing calcium and magnesium was added to prepare a cell suspension. The cell suspension was then placed into a 15 ml centrifuge tube and centrifuged for 2 min at 1200 rpm. After centrifugation, the supernatant was removed and the cell pellet re-suspended in 4 ml of DPBS containing calcium and magnesium using a 5 ml pipette to break […] up the pellet. Cell suspension volume was then corrected to give a cell concentration for the assay of approximately 3 million cells per ml.
Experiments were conducted at room temperature using IonWorks Quattro™ planar array electrophysiology technology (Molecular Devices Corp.) with PatchPlate™ PPC. Stimulation protocols and data acquisition were carried out using a microcomputer (Dell Pentium 4). Planar electrode hole resistances (Rp) were determined by applying a 10 mV voltage step across each well. These measurements were performed before cell addition. […] Following this, amphotericin-B solution was added to the intracellular face of the electrode to achieve intracellular access. Cells were held at −70 mV. Leak subtraction was conducted in all experiments by applying 50 ms hyperpolarizing (10 mV) prepulses to evoke leak currents followed by a 20 ms period at the holding potential before test pulses. From the holding potential of −70 mV, a first test pulse to −15 mV was applied for 100 ms and following a further 100 ms at −70 mV, a second pulse to 40 mV was applied for 50 ms. Cells were then maintained for a further 100 ms at −100 mV and then a voltage ramp from −100 mV to 40 mV was applied over 200 ms. In all experiments, the test pulses protocol was performed in the absence (pre-read) and presence (post-read) of the test compound. Pre- and post-reads were separated by the compound addition followed by a 3 minute incubation.
The magnitude of the effect of a compound can be determined from the time constant (Tauact) obtained from a non-linear fit, using the equation given below, of the rise in Kv3.1 or Kv3.2 currents following the start of the depolarising voltage pulse. Y=(Y0−Ymax)*exp(−K*X)+Ymax
Where: • Y0 is the current value at the start of the depolarising voltage pulse; • Ymax is the plateau current;
K is the rate constant, and Tauact is the activation time constant, which is the reciprocal of K.

CC[C@H]1NC(=O)N(c2ccc(Oc3ccc(C)c(OC)c3)nc2)C1=O [Example 19, (5R)-5-ethyl-3-(6-{[4-methyl-3-(methyloxy)phenyl]oxy}-3-pyridinyl)-2,4-imidazolidinedione]
acts as positive or negative modulator of Kv3.1 and/or Kv3.2: positive modulators
